According to the CheMixHub ionic liquid set:

Test: xn = mol fraction of the nth substance listed
Conditions: 100 kPa

CC(C)C[C@H](N)C(=O)O + CCCC[n+]1ccn(C)c1.F[B-](F)(F)F + O
viscosity [mPa·s]
Conditions | 293.15 K | 298.15 K | 303.15 K
x1 = 0.0002738, x2 = 0 | 1.013 | 0.9 | 0.807
x1 = 0.0002786, x2 = 0.0003728 | 1.044 | 0.93 | 0.848
x1 = 0.0002797, x2 = 0.0007255 | 1.076 | 0.964 | 0.881
x1 = 0.0002864, x2 = 0.001099 | 1.109 | 0.998 | 0.919
x1 = 0.0004577, x2 = 0.0007254 | 1.081 | 0.97 | 0.887
x1 = 0.0004593, x2 = 0 | 1.017 | 0.905 | 0.811
x1 = 0.0004597, x2 = 0.001099 | 1.115 | 1.004 | 0.925
x1 = 0.0004649, x2 = 0.0003727 | 1.049 | 0.935 | 0.852
x1 = 0.0006294, x2 = 0.0003726 | 1.054 | 0.94 | 0.857
x1 = 0.0006321, x2 = 0 | 1.022 | 0.909 | 0.815
x1 = 0.0006374, x2 = 0.0007252 | 1.086 | 0.975 | 0.892
x1 = 0.0006474, x2 = 0.001099 | 1.121 | 1.01 | 0.931
x1 = 0.0008066, x2 = 0 | 1.026 | 0.913 | 0.819
x1 = 0.0008173, x2 = 0.0003726 | 1.059 | 0.945 | 0.862
x1 = 0.0008279, x2 = 0.0007251 | 1.092 | 0.98 | 0.897
x1 = 0.0008314, x2 = 0.001099 | 1.127 | 1.016 | 0.936
x1 = 0.0009955, x2 = 0 | 1.031 | 0.917 | 0.823
x1 = 0.001003, x2 = 0.0003725 | 1.064 | 0.949 | 0.866
x1 = 0.001004, x2 = 0.000725 | 1.097 | 0.985 | 0.902
x1 = 0.00101, x2 = 0.001099 | 1.132 | 1.021 | 0.941
x1 = 0.001168, x2 = 0 | 1.035 | 0.921 | 0.826
x1 = 0.001172, x2 = 0.0007248 | 1.102 | 0.99 | 0.906
x1 = 0.001177, x2 = 0.0003724 | 1.069 | 0.954 | 0.871
x1 = 0.001183, x2 = 0.001099 | 1.138 | 1.026 | 0.946
x1 = 0.00135, x2 = 0.0003724 | 1.074 | 0.959 | 0.875
x1 = 0.001357, x2 = 0 | 1.04 | 0.925 | 0.83
x1 = 0.001369, x2 = 0.001098 | 1.144 | 1.031 | 0.951
x1 = 0.00137, x2 = 0.0007247 | 1.108 | 0.995 | 0.911
x1 = 0.001535, x2 = 0 | 1.044 | 0.929 | 0.834
x1 = 0.001541, x2 = 0.0003723 | 1.08 | 0.963 | 0.88
x1 = 0.001554, x2 = 0.001098 | 1.15 | 1.037 | 0.957
x1 = 0.001557, x2 = 0.0007246 | 1.113 | 0.999 | 0.915
x1 = 0.00172, x2 = 0 | 1.048 | 0.933 | 0.838
x1 = 0.00172, x2 = 0.0003722 | 1.085 | 0.968 | 0.884
x1 = 0.00172, x2 = 0.0007244 | 1.117 | 1.003 | 0.92
x1 = 0.001727, x2 = 0.001098 | 1.156 | 1.042 | 0.962
